The values that follow come from patent US12018023B2 (NERVIANO MEDICAL SCIENCES S.R.L., priority 2018, dated 2024).

Assay [1] addresses T1, IDH1^R132H homodimer enzyme (Homo sapiens, UniProt O75874, R132H).
T1 construct: purchased not specified
Description: NADPH depletion assay, IDH1 R132H. In kind it is biochemical. The essentials:
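IDH1 R132H enzyme (8 nM as diluted) in Tris-HCl pH 7.6 with 10 mM MgCl2, 0.001% Triton X-100 and 4 mM β-mercaptoethanol is preincubated 15 min at RT with compound. Substrate mix (12 uM NADPH, 3.4 mM α-ketoglutarate) is added for 60 min; remaining NAD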

The target in a further assay is T2, IDH1^R132C (Homo sapiens, UniProt O75874, R132C).
T2 construct: purchased not specified
T2 sequence (O75874 whole entry R132C): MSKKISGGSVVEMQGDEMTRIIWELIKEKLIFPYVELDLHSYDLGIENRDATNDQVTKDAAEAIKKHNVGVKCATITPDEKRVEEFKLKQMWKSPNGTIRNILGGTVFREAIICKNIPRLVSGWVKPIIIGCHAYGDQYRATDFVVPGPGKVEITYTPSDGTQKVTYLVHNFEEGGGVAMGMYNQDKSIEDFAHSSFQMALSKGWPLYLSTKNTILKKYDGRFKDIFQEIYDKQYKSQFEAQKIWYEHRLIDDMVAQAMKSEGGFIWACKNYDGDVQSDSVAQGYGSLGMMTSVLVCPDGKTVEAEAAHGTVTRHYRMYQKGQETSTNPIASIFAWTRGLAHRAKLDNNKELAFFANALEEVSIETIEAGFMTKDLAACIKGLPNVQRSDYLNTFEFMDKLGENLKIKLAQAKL
Description: NADPH depletion assay, IDH1 R132C. In kind it is biochemical. The method, boiled down: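 IDH1 R132C (2 nM) preincubated 15 min at RT with compound in Tris-HCl pH 7.6/MgCl2 buffer, then 60 min RT with NADPH and 0.14 mM alpha-ketoglutarate. Remaining NADPH read by diaphorase/resazurin fluorescence (Ex544/Em590).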

Another assay deals with T3, IDH2^R172K (Homo sapiens, UniProt P48735, R172K).
T3 construct: purchased not specified
T3 sequence (P48735 40-452 R172K): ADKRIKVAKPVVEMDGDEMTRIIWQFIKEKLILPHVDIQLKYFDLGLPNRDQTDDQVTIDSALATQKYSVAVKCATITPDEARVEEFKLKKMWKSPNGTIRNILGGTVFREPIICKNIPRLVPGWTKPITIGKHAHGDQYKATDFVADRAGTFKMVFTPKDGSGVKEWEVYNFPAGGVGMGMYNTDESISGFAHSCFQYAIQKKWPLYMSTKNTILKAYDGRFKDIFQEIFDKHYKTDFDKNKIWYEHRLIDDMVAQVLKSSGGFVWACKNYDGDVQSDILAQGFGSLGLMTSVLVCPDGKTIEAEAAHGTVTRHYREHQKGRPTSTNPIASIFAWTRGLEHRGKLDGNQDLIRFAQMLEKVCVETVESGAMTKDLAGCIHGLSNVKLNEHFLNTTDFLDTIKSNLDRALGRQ
Description: NADPH depletion assay, IDH2 R172K. In kind it is biochemical. The essentials:
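IDH2 R172K (16 nM) was preincubated 15 min at RT with compound (1:3 series from 1 mM in DMSO) in Tris pH 7.6/NaCl/MgCl2/Triton/β-mercaptoethanol. The reaction ran 60 min at RT with 0.55 mM alpha-ketoglutarate and NADPH (12 μM in the substrate mix). Remaining NADPH was read with diaphorase/resazurin fluorescence at Ex544/Em590.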

The target in a further assay is T4, IDH1WT enzyme (Homo sapiens, UniProt O75874).
T4 construct: purchased not specified
T4 sequence (O75874 whole entry): as the sequence (O75874 whole entry R132C) above, with C132R counted along it
Description: Enzymatic assay for IDH1 wild-type (NADPH forming assay). The class given is biochemical. The method, then:
IDH1WT enzymatic activity converting isocitric acid to alpha-ketoglutarate is measured using a NADPH forming assay. In the assay the forming cofactor is measured in continuous with the addition of a catalytic excess of diaphorase and resazurin, to generate a fluorescent signal in proportion to the amount of NADPH forming.
Compounds were preincubated with the enzyme, then the reaction was started by the addition of NADP^+, isocitrate, diaphorase and a corresponding substrate, resazurin. Diaphorase reduces resazurin to the highly fluorescent resorufin with the concomitant oxidation of NADPH to NADP. Specifically, 0.2 uL of test compound, previously serially diluted 1 to 3, 10 experimental points from 1 mM in DMSO, was added to 0.016 nM IDH1WT enzyme in 10 μL of Assay Buffer (150 mM NaCl, 50 mM Tris-HCl pH 7.6, 10 mM MgCl2, 0.001% Triton X-100, 4 mM β-mercaptoethanol); the mixture is incubated for 15 minutes at room temperature. The reaction is started with the addition of 10 μL of Substrate Mix (400 μM NADP^+, 40 μM iso-citrate, 5 ugr/mL Diaphorase and 7 μM resazurin in Assay Buffer), the mixture is incubated at room temperature and the reaction is reading on a ViewLux as platereader at Ex544/Em590 in continuous.

Another assay deals with U87MG_IDH1R132H. The assay is described as follows: Cellular 2-HG production assay, U87-MG-IDH1 R132H. The class given is cell-based. The conditions noted are these: inhibition of 2HG production, 72 hr incubation, LC-MS/MS. The method, boiled down: (§1)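 Cells in E-MEM/10% FCS (G418 500 μg/mL for the transfected U87-MG line) at 500 per well got compound 24 h after seeding and were incubated 72 h at 37 °C. Medium 2-HG was measured by LC-MS/MS with 2-HG-d3 internal standard; IC50 came from sigmoidal fitting versus controls.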

Another assay relates to HT-1080 (IDH1^R132C). The assay is described as follows: Cellular 2-HG production assay, HT-1080. To be noted: Homo sapiens, HT-1080, 72 h, inhibition of 2HG production, 72 hr incubation, LC-MS/MS; read-out: HT1080 2-HG IC50. The class given is cell-based. The method, boiled down: as §1

T1 sequence (O75874 whole entry R132H): as the sequence (O75874 whole entry R132C) above, with C132H counted along it

For the molecule `C=CC(=O)N1CCN(Cc2ccc([C@H](C)Nc3ncc4ccc(=O)n(CC(C)(C)CO)c4n3)cc2)CC1` [cpd 140, 2-{(S)-1-[4-(4-Acryloyl-piperazin-1-ylmethyl)-phenyl]-ethylamino}-8-(3-hydroxy-2,2-dimethyl-propyl)-8H-pyrido [2,3-d]pyrimidin-7-one], the concentration for half-maximal inhibition (IC50) in assay [1] is 0.249 µM; on IDH1^R132C, 0.115 µM; against IDH2^R172K, 3.23 µM; against IDH1WT enzyme it was 4.85 µM; with U87MG_IDH1R132H, 0.01 µM; in the assay with HT-1080 (IDH1^R132C) it was 0.108 µM.
As to `C=CC(=O)N1CCN(C(CC2CC2)c2ccc([C@H](C)Nc3ncc4ccc(=O)n(C(C)C)c4n3)cc2)CC1` (stereo partly drawn) [cpd 220, 2-{[(1S)-1-{4-[1-(4-acryloylpiperazin-1-yl)-2-cyclopropylethyl]phenyl}ethyl]amino}-8-(propan-2-yl)pyrido[2,3-d]pyrimidin-7(8H)-one], the IC50 in assay [1] worked out at 0.001 µM; against IDH1^R132C it was 0.001 µM; on IDH2^R172K it was 0.015 µM; against IDH1WT enzyme, 0.053 µM; in the assay with U87MG_IDH1R132H, 0.0005 µM; with HT-1080 (IDH1^R132C), 0.0003 µM.
Turning to `C=CC(=O)N1CCN(C(CC)c2ccc([C@@H](C)Nc3ncc4ccc(=O)n(C(C)C)c4n3)cc2)CC1` (stereo in doubt) [cpd 229, 2-{[(1R)-1-{4-[(1R)-1-(4-acryloylpiperazin-1-yl)propyl]phenyl}ethyl]amino}-8-(propan-2-yl)pyrido[2,3-d]pyrimidin-7(8H)-one], the IC50 in assay [1] came to 0.083 µM; on IDH1^R132C, 0.044 µM; against IDH2^R172K, 0.386 µM; against IDH1WT enzyme it was 0.839 µM; in the assay with U87MG_IDH1R132H, 0.013 µM; in the assay on HT-1080 (IDH1^R132C), 0.02 µM.
For the molecule `C=CC(=O)N1CCN(Cc2ccc([C@H](C)Nc3ncc4ccc(=O)n(CC(C)(C)C)c4n3)cc2F)CC1` [cpd 141, 2-{[(1S)-1-{4-[(4-acryloylpiperazin-1-yl)methyl]-3-fluorophenyl}ethyl]amino}-8-(2,2-dimethylpropyl)pyrido[2,3-d] pyrimidin-7(8H)-one], the concentration for half-maximal inhibition (IC50) is 0.038 µM in assay [1]; 0.031 µM against IDH1^R132C; 0.213 µM at IDH2^R172K; 1.82 µM on IDH1WT enzyme; 0.024 µM in the assay with U87MG_IDH1R132H.
For `C[C@H](Nc1ncc2ccc(=O)n(CC(C)(C)C)c2n1)c1ccc(CN2CCCC(F)(F)C2)cc1` [cpd 117, 2-{[(1S)-1-{4-[(3,3-difluoropiperidin-1-yl)methyl]phenyl}ethyl]amino}-8-(2,2-dimethylpropyl)pyrido[2,3-d]pyrimidin-7(8H)-one], the concentration for half-maximal inhibition (IC50) amounted to 0.055 µM in assay [1]; 0.029 µM at IDH1^R132C; 5.51 µM against IDH2^R172K; 1.58 µM against IDH1WT enzyme; 0.177 µM in the assay with U87MG_IDH1R132H; 0.155 µM in the assay with HT-1080 (IDH1^R132C).
Take `C=CC(=O)N1CCC(Oc2ccc([C@H](C)Nc3ncc4ccc(=O)n(CC(C)(C)C)c4n3)cc2)CC1` [cpd 156, 2-{(S)-1-[4-(1-Acryloyl-piperidin-4-yloxy)-phenyl]-ethylamino}-8-(2,2-dimethyl-propyl)-8H-pyrido[2,3-d]pyrimidin-7-one]: the IC50 in assay [1] was 0.139 µM; against IDH1^R132C, 0.091 µM; on IDH2^R172K, 0.476 µM; against IDH1WT enzyme, 2.54 µM; with U87MG_IDH1R132H, 0.289 µM.
Consider `CC(C)[C@H](C)n1c(=O)ccc2cnc(N[C@@H](C)c3ccc(CN4CCC(F)(F)CC4)c(F)c3)nc21` [cpd 67, 2-{[(1S)-1-{4-[(4,4-difluoropiperidin-1-yl)methyl]-3-fluorophenyl}ethyl]amino}-8-[(2S)-3-methylbutan-2-yl]pyrido[2,3-d]pyrimidin-7(8H)-one], for which the IC50 was 0.037 µM in assay [1]; 0.015 µM against IDH1^R132C; 7.36 µM at IDH2^R172K; 1.71 µM against IDH1WT enzyme; 0.2 µM in the assay on U87MG_IDH1R132H; 0.067 µM in the assay on HT-1080 (IDH1^R132C).
Consider `C=CC(=O)N1CCC(Oc2ccc([C@H](C)Nc3ncc4ccc(=O)n([C@@H](C)C(C)C)c4n3)cc2)CC1` [cpd 159, 2-{(S)-1-[4-(1-Acryloyl-piperidin-4-yloxy)-phenyl]-ethylamino}-8-((S)-1,2-dimethyl-propyl)-8H-pyrido[2,3-d]pyrimidin-7-one], for which the 50% inhibitory concentration (IC50) in assay [1] stood at 0.077 µM; against IDH1^R132C, 0.037 µM; on IDH2^R172K, 0.51 µM; on IDH1WT enzyme, 1.73 µM; in the assay with U87MG_IDH1R132H, 0.081 µM.
For `C=CC(=O)N1CCN([C@H](CC2CC2)c2ccc([C@H](C)Nc3ncc4ccc(=O)n(C(C)C)c4n3)cc2)CC1` [cpd 231, 2-{[(1S)-1-{4-[(1R)-1-(4-acryloylpiperazin-1-yl)-2-cyclopropylethyl]phenyl}ethyl]amino}-8-(propan-2-yl) pyrido [2,3-d]pyrimidin-7(8H)-one], the IC50 in assay [1] was found to be 0.001 µM; at IDH1^R132C it was 0.001 µM; at IDH2^R172K, 0.014 µM; against IDH1WT enzyme, 0.122 µM; with HT-1080 (IDH1^R132C), 0.0003 µM.
For the molecule `C[C@H](Nc1ncc2ccc(=O)n(CC(C)(C)C)c2n1)c1ccc(CN2CCC(F)(F)CC2)c(F)c1` [cpd 94, 2-{[(1S)-1-{4-[(4,4-difluoropiperidin-1-yl)methyl]-3-fluorophenyl}ethyl]amino}-8-(2,2-dimethylpropyl) pyrido[2,3-d]pyrimidin-7(8H)-one], the concentration for half-maximal inhibition (IC50) was 0.071 µM in assay [1]; 0.03 µM at IDH1^R132C; 5.57 µM against IDH2^R172K; 1.33 µM against IDH1WT enzyme; 0.37 µM in the assay with U87MG_IDH1R132H; 0.203 µM with HT-1080 (IDH1^R132C).
On to `C=CC(=O)N1CCN(C(CC2CC2)c2ccc([C@H](C)Nc3ncc4ccc(=O)n(CC)c4n3)cc2)CC1` (stereo partly drawn) [cpd 219, 2-{[(1S)-1-{4-[1-(4-acryloylpiperazin-1-yl)-2-cyclopropylethyl]phenyl}ethyl]amino}-8-ethylpyrido[2,3-d]pyrimidin-7(8H)-one], for which the half-inhibitory concentration (IC50) in assay [1] is 0.001 µM; against IDH1^R132C, 0.001 µM; on IDH2^R172K, 0.006 µM; at IDH1WT enzyme it was 0.052 µM; in the assay with U87MG_IDH1R132H it was 0.0004 µM; in the assay on HT-1080 (IDH1^R132C), 0.0004 µM.
Turning to `C=CC(=O)N1CCN(c2ccc([C@H](C)Nc3ncc4ccc(=O)n([C@@H](C)C(C)C)c4n3)cc2)CC1` [cpd 175, 2-({(1S)-1-[4-(4-acryloylpiperazin-1-yl)phenyl]ethyl}amino)-8-[(2S)-3-methylbutan-2-yl]pyrido[2,3-d]pyrimidin-7(8H)-one], the half-maximal inhibitory concentration (IC50) is 0.065 µM in assay [1]; 0.066 µM on IDH1^R132C; 0.442 µM on IDH2^R172K; 1.17 µM against IDH1WT enzyme; 0.021 µM in the assay on U87MG_IDH1R132H.
For `C=CC(=O)N1CCN([C@H](CC2CC2)c2ccc(C3(Nc4ncc5ccc(=O)n(C(C)C)c5n4)CC3)cc2)CC1` (single isomer, unassigned) [cpd 245], the half-inhibitory concentration (IC50) in assay [1] was found to be 0.002 µM; at IDH1^R132C, 0.002 µM; on IDH2^R172K, 0.02 µM; at IDH1WT enzyme, 0.224 µM; in the assay on HT-1080 (IDH1^R132C), 0.001 µM.
For the molecule `C=CC(=O)N1CCC(C#N)(c2ccc([C@H](C)Nc3ncc4ccc(=O)n(C(C)C)c4n3)cc2)CC1` [cpd 241, 1-acryloyl-4-{4-[(1S)-1-{[7-oxo-8-(propan-2-yl)-7,8-dihydropyrido[2,3-d]pyrimidin-2-yl]amino}ethyl]phenyl}piperidine-4-carbonitrile], the IC50 in assay [1] worked out at 0.272 µM; at IDH1^R132C it was 0.196 µM; against IDH2^R172K it was 0.146 µM; at IDH1WT enzyme, 0.117 µM; in the assay with HT-1080 (IDH1^R132C), 0.0647 µM.
